Measurements from patent US20200325177A1, “METHODS OF MAKING STREPTOGRAMIN COMPOSITIONS AND THE USE THEREOF” (THE REGENTS OF THE UNIVERSITY OF CALIFORNIA, priority 2017, published 2020).
Values after ≈ are worked out from the molar mass of the structure shown. Where two headings read alike, the source gives them in different places.

Experiments:
Type in all cases: cell-based
Gram-Negative Organisms = assay: microbe, parasite or virus in culture
E. faecium ATCC 35667 = assay: MIC, Gram-positive bacteria: E. faecium ATCC 35667; details: Enterococcus faecium, ATCC35667, column 2, read-out: Minimal Inhibitory Concentration (MIC) E. faecium ATCC 35667
S. aureus = assay: MIC, Gram-positive bacteria: S. aureus (strains not named); details: Staphylococcus aureus, read-out: Minimal Inhibitory Concentration (MIC) S. aureus
[1] = system: P. aeruginosa MDR clinical isolate; assay: MIC, Gram-negative bacteria: P. aeruginosa MDR clinical isolate; details: Pseudomonas aeruginosa, read-out: Minimal Inhibitory Concentration (MIC) P. aeruginosa MDR clinical isolate
E. faecalis = assay: MIC, Gram-positive bacteria: E. faecalis; details: Enterococcus faecalis, column 1, read-out: Minimal Inhibitory Concentration (MIC) E. faecalis
S. pneumoniae = assay: MIC, Gram-positive bacteria: S. pneumoniae; details: Streptococcus pneumoniae, column 10, read-out: Minimal Inhibitory Concentration (MIC) S. pneumoniae
[2] = system: S. aureus Vat A streptogramin; assay: MIC, Gram-positive bacteria: S. aureus Vat A streptogramin; details: Staphylococcus aureus; Gram-positive; column 5; read-out: Minimal Inhibitory Concentration (MIC) S. aureus Vat A streptogramin
E. faecium VRE; vanA = assay: MIC, Gram-positive bacteria: E. faecium VRE; vanA; details: Enterococcus faecium, column 3, read-out: Minimal Inhibitory Concentration (MIC) E. faecium VRE
[3] = system: S. aureus Linezolid-resistant; cfr; assay: MIC, Gram-positive bacteria: S. aureus Linezolid-resistant; cfr; details: Staphylococcus aureus, column 9, read-out: Minimal Inhibitory Concentration (MIC) S. aureus Linezolid-resistant
P. aeruginosa ATCC 27853 = assay: MIC, Gram-negative bacteria: P. aeruginosa ATCC 27853; details: Pseudomonas aeruginosa, ATCC27853, read-out: Minimal Inhibitory Concentration (MIC) P. aeruginosa ATCC 27853
H. influenzae ATCC 49247 = assay: MIC, Gram-negative bacteria: H. influenzae ATCC 49247; details: Haemophilus influenzae, ATCC49247, read-out: Minimal Inhibitory Concentration (MIC) H. influenzae ATCC 49247
[4] = system: K. pneumoniae multidrug-resistant; assay: MIC, Gram-negative bacteria: K. pneumoniae multidrug-resistant; details: Klebsiella pneumoniae, read-out: Minimal Inhibitory Concentration (MIC) K. pneumoniae multidrug-resistant
[5] = Acinetobacter baumannii, ATCC19606, read-out: Minimal Inhibitory Concentration (MIC), A. baumannii ATCC 19606
[6] = Escherichia coli, ATCC25922, read-out: Minimal Inhibitory Concentration (MIC), E. coli ATCC 25922
[7] = Escherichia coli, read-out: Minimal Inhibitory Concentration (MIC), E. coli BAS2006, OMP C, OMP F
[8] = Escherichia coli, read-out: Minimal Inhibitory Concentration (MIC), E. coli olC efflux defective
[9] = Escherichia coli, read-out: Minimal Inhibitory Concentration (MIC), E. coli permeability mutant BAS1314, IMP4213ZAB::TN10
[10] = Klebsiella pneumoniae, ATCC43816, read-out: Minimal Inhibitory Concentration (MIC), K. pneumoniae ATCC 43816
[11] = first unnamed S. aureus column (c4)
[12] = fourth unnamed S. aureus column (c8)
[13] = second unnamed S. aureus column (c6)
[14] = third unnamed S. aureus column (c7)
[15] = Escherichia coli, read-out: Minimal Inhibitory Concentration (MIC), E. coli ΔompC768, KanR insert

| Structure (SMILES) | MIC (Gram-Negative Organisms; [5]) [µg/mL] | MIC (Gram-Negative Organisms; [6]) [µg/mL] | MIC (Gram-Negative Organisms; [7]) [µg/mL] | MIC (Gram-Negative Organisms; [8]) [µg/mL] | MIC (Gram-Negative Organisms; [9]) [µg/mL] | MIC (Gram-Negative Organisms; [10]) [µg/mL] | MIC (E. faecium ATCC 35667) [µg/mL] | MIC (S. aureus; [11]) [µg/mL] | MIC (S. aureus; [12]) [µg/mL] | MIC (S. aureus; [13]) [µg/mL] | MIC (S. aureus; [14]) [µg/mL] | MIC [1] [µg/mL] | MIC (E. faecalis) [µg/mL] | MIC (S. pneumoniae) [µg/mL] | MIC [2] [µg/mL] | MIC (E. faecium VRE; vanA) [µg/mL] | MIC [3] [µg/mL] | MIC (P. aeruginosa ATCC 27853) [µg/mL] | MIC (H. influenzae ATCC 49247) [µg/mL] | MIC [4] [µg/mL] | other results |
| --- | --- | --- | --- | --- | --- | --- | --- | --- | --- | --- | --- | --- | --- | --- | --- | --- | --- | --- | --- | --- | --- |
| CC1=C\[C@@H](O)CC(=O)Cc2nc(co2)C(=O)N2CCC[C@@H]2C(=O)O[C@H]([C@@H](C)COC(=O)Nc2cc3ccccc3cn2)[C@H](C)/C=C/C(=O)NC\C=C\1 [SA0110118] | > 64 | > 64 | 8 (≈ 11.2 µM) | 2 (≈ 2.8 µM) | 2 (≈ 2.8 µM) | > 64 | 4 (≈ 5.6 µM) | 8 (≈ 11.2 µM) | 8 (≈ 11.2 µM) | 8 (≈ 11.2 µM) | 16 (≈ 22.4 µM) | > 64 | > 64 | 2 (≈ 2.8 µM) | > 64 | 16 (≈ 22.4 µM) | > 64 | > 64 | > 64 | > 64 | – |
| CC1=C\[C@@H](O)CC(=O)Cc2nc(co2)C(=O)N2CCC[C@@H]2C(=O)O[C@H]([C@@H](C)COC(=O)Nc2ccccn2)[C@H](C)/C=C/C(=O)NC\C=C\1 [SA0110120] | > 64 | > 64 | 32 (≈ 48.2 µM) | 4 (≈ 6.03 µM) | 8 (≈ 12.1 µM) | > 64 | 32 (≈ 48.2 µM) | 64 (≈ 96.4 µM) | 32 (≈ 48.2 µM) | 64 (≈ 96.4 µM) | > 64 | > 64 | > 64 | 16 (≈ 24.1 µM) | > 64 | 64 (≈ 96.4 µM) | > 64 | > 64 | 32 (≈ 48.2 µM) | > 64 | – |
| CC1=C\[C@@H](O)CC(=O)Cc2nc(co2)C(=O)N2CCC[C@@H]2C(=O)O[C@H]([C@@H](C)CN2CCOCC2)[C@H](C)/C=C/C(=O)NC\C=C\1 [SA0110161] | > 64 | > 64 | > 64 | > 64 | > 64 | > 64 | > 64 | > 64 | > 64 | > 64 | > 64 | > 64 | > 64 | > 64 | > 64 | > 64 | > 64 | > 64 | > 64 | > 64 | MIC (Gram-Negative Organisms; [15]): > 64 µg/mL |
| CC1=C\[C@@H](O)CC(=O)Cc2nc(co2)C(=O)N2CCC[C@@H]2C(=O)O[C@H]([C@H](C)CO)[C@H](C)/C=C/C(=O)NC\C=C\1 [SA0110170] | > 64 | > 64 | > 64 | 32 (≈ 58.9 µM) | 32 (≈ 58.9 µM) | > 64 | > 64 | > 64 | > 64 | > 64 | > 64 | > 64 | > 64 | 64 (≈ 118 µM) | > 64 | > 64 | > 64 | > 64 | 32 (≈ 58.9 µM) | > 64 | MIC (Gram-Negative Organisms; [15]): > 64 µg/mL |
| CC1=C\[C@@H](O)CC(=O)Cc2nc(co2)C(=O)N2CCC[C@@H]2C(=O)O[C@H]([C@H](C)COC(=O)Nc2ccc(C)cc2)[C@H](C)/C=C/C(=O)NC\C=C\1 [SA0110184] | > 64 | > 64 | > 64 | 4 (≈ 5.91 µM) | 2 (≈ 2.96 µM) | > 64 | 16 (≈ 23.6 µM) | 16 (≈ 23.6 µM) | 16 (≈ 23.6 µM) | 16 (≈ 23.6 µM) | 32 (≈ 47.3 µM) | > 64 | > 64 | 32 (≈ 47.3 µM) | > 64 | 16 (≈ 23.6 µM) | > 64 | > 64 | 16 (≈ 23.6 µM) | > 64 | MIC (Gram-Negative Organisms; [15]): > 64 µg/mL |
| COc1ccc(NC(=O)OC[C@@H](C)[C@H]2OC(=O)[C@H]3CCCN3C(=O)c3coc(n3)CC(=O)C[C@H](O)/C=C(C)/C=C/CNC(=O)/C=C/[C@H]2C)cc1 [SA0110185] | > 64 | > 64 | 64 (≈ 92.4 µM) | 2 (≈ 2.89 µM) | 4 (≈ 5.77 µM) | > 64 | 16 (≈ 23.1 µM) | 32 (≈ 46.2 µM) | 16 (≈ 23.1 µM) | 16 (≈ 23.1 µM) | 32 (≈ 46.2 µM) | > 64 | > 64 | 32 (≈ 46.2 µM) | > 64 | 32 (≈ 46.2 µM) | > 64 | > 64 | 16 (≈ 23.1 µM) | > 64 | MIC (Gram-Negative Organisms; [15]): > 64 µg/mL |
| CC1=C\[C@@H](O)CC(=O)Cc2nc(co2)C(=O)N2CCC[C@@H]2C(=O)O[C@H]([C@H](C)COC(=O)Nc2ccc(C(F)(F)F)cc2)[C@H](C)/C=C/C(=O)NC\C=C\1 [SA0110193] | > 64 | > 64 | > 64 | 8 (≈ 10.9 µM) | 4 (≈ 5.47 µM) | > 64 | 8 (≈ 10.9 µM) | 8 (≈ 10.9 µM) | 8 (≈ 10.9 µM) | 8 (≈ 10.9 µM) | 16 (≈ 21.9 µM) | > 64 | > 64 | > 64 | 16 (≈ 21.9 µM) | > 64 | > 64 | > 64 | > 64 | > 64 | MIC (Gram-Negative Organisms; [15]): > 64 µg/mL |
| CC1=C\[C@@H](O)CC(=O)Cc2nc(co2)C(=O)N2CCC[C@@H]2C(=O)O[C@H]([C@H](C)COC(=O)Nc2ccc(OC(F)(F)F)cc2)[C@H](C)/C=C/C(=O)NC\C=C\1 [SA0110195] | > 64 | > 64 | > 64 | 8 (≈ 10.7 µM) | 8 (≈ 10.7 µM) | > 64 | 8 (≈ 10.7 µM) | 16 (≈ 21.4 µM) | 8 (≈ 10.7 µM) | 16 (≈ 21.4 µM) | 16 (≈ 21.4 µM) | > 64 | > 64 | > 64 | > 64 | > 64 | > 64 | > 64 | > 64 | > 64 | MIC (Gram-Negative Organisms; [15]): > 64 µg/mL |
